Test results reported in patent publication US8871681B2, “Herbicidal compositions comprising 4-amino-3-chloro-5-fluoro-6-(4-chloro-2-fluoro-3-methoxyphenyl) pyridine-2-carboxylic acid or a derivative thereof and certain sulfonylureas” (Dow AgroSciences LLC, priority 2012, dated 2014).

Test system: IPOHE (Ipomoea hederacea, ivyleaf morningglory)
Test: Postemergence foliar-applied weed control, direct seeded rice, greenhouse (Example I)
Assay type: in vivo, Ipomoea hederacea Jacq.
Outline: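 Greenhouse-grown plants in loam/sandy loam–grit soil (14 h photoperiod, ~29/26 °C) were sprayed postemergence at the first to fourth true leaf stage. Compound A (acid equivalent basis) and ALS-inhibiting sulfonylureas (active ingredient basis) were applied alone and in combination in 1.25% (v/v) crop oil concentrate at 187 L/ha by track sprayer; controls received solvent blank.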

SMILES: COc1c(Cl)ccc(-c2nc(C(=O)O)c(Cl)c(N)c2F)c1F [Compound A Acid, 4-amino-3-chloro-5-fluoro-6-(4-chloro-2-fluoro-3-methoxy-phenyl)pyridine-2-carboxylic acid]
- Visual Weed Control (%) Obs (20 DAA, 5.3 gae/ha): 0%
- Visual Weed Control (%) Obs (20 DAA, 10.6 gae/ha): 15%
- Visual Weed Control (%) Obs (20 DAA, 21.2 gae/ha): 25%
- Visual Weed Control (%) Obs (21 DAA, 4.38 gae/ha): 25%
- Visual Weed Control (%) Obs (21 DAA, 8.75 gae/ha): 30%
- Visual Weed Control (%) Obs (21 DAA, 17.5 gae/ha): 45%
- Visual Weed Control (%) Obs (22 DAA, 8 gae/ha): 25%
- Visual Weed Control (%) Obs (22 DAA, 16 gae/ha): 35%
- Visual Weed Control (%) Obs (22 DAA, 32 gae/ha): 40%

SMILES: COc1c(Cl)ccc(-c2nc(C(=O)OCc3ccccc3)c(Cl)c(N)c2F)c1F [Compound A Benzyl Ester]
- Visual Weed Control (%) Obs (20 DAA, 4.38 gae/ha): 10%
- Visual Weed Control (%) Obs (20 DAA, 8.75 gae/ha): 10%
- Visual Weed Control (%) Obs (20 DAA, 17.5 gae/ha): 25%
- Visual Weed Control (%) Obs (21 DAA, 4.38 gae/ha): 0%
- Visual Weed Control (%) Obs (21 DAA, 8 gae/ha): 10%
- Visual Weed Control (%) Obs (21 DAA, 8.75 gae/ha): 10%
- Visual Weed Control (%) Obs (21 DAA, 16 gae/ha): 10%
- Visual Weed Control (%) Obs (21 DAA, 17.5 gae/ha): 30%
- Visual Weed Control (%) Obs (21 DAA, 32 gae/ha): 45%
- Visual Weed Control Obs (22 DAA, 8 gae/ha): 10%
- Visual Weed Control Obs (22 DAA, 16 gae/ha): 10%
- Visual Weed Control Obs (22 DAA, 32 gae/ha): 35%

SMILES: COCC(=O)OC(c1ncccc1S(=O)(=O)NC(=O)Nc1nc(OC)cc(OC)n1)C(C)F (stereo not shown) [Flucetosulfuron, 1-[3-[[[[(4,6-dimethoxy-2-pyrimidinyl)amino]carbonyl]amino]sulfonyl]-2-pyridinyl]-2-fluoropropyl 2-methoxyacetate]
- Visual Weed Control (%) Obs (21 DAA, 0.05 gai/ha): 20%
- Visual Weed Control (%) Obs (21 DAA, 0.2 gai/ha): 20%
- Visual Weed Control (%) Obs (22 DAA, 5 gai/ha): 90%
- Visual Weed Control (%) Obs (22 DAA, 10 gai/ha): 90%
